This passage reports EC50 results from patent publication US9120770B2, “Substituted pyridine and pyrazine compounds as PDE4 inhibitors” (DART NEUROSCIENCE (CAYMAN) LTD., priority 2013, dated 2015).

One may read the EC50 as the concentration that produces a half-maximal response. The low end stands for a more potent agent, the high end for a less potent agent.

PDE4D3, sequence (Q08499 1-673 isoform Q08499-2): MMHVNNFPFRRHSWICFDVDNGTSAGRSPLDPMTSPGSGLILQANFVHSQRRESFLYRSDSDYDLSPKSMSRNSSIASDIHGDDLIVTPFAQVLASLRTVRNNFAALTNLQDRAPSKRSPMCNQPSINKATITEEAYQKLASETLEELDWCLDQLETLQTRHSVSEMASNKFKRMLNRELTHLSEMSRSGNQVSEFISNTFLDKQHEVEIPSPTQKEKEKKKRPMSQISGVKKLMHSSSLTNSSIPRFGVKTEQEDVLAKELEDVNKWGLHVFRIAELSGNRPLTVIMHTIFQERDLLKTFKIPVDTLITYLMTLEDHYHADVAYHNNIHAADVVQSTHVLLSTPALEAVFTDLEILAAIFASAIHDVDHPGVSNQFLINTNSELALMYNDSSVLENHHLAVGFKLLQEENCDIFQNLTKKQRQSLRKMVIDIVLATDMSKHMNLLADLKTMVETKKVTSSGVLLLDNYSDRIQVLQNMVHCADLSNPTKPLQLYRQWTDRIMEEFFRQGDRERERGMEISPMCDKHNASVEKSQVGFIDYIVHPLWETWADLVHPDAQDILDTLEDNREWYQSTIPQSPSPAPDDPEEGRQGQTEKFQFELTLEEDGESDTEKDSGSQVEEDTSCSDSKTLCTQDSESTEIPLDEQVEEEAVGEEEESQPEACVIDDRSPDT

The assay has as its target PDE4D3 (Homo sapiens, UniProt Q08499).
Compound `CCOc1ncc(Cc2cnc(C#N)nc2)nc1-c1cccc(OC(F)F)c1` [Example 1, 5-({6-[3-(Difluoromethoxy)phenyl]-5-ethoxypyrazin-2-yl}methyl)pyrimidine-2-carbonitrile] registered a concentration giving a half-maximal response (EC50) below 100 nM.

`COc1ncc(Cc2cnc(Cl)nc2)cc1-c1cccc(Cl)c1` [Example 2, 2-Chloro-5-{[5-(3-chlorophenyl)-6-methoxypyridin-3-yl]methyl}pyrimidine] came in with a concentration for a half-maximal effect (EC50) of 100 to 1000 nM. `COc1ncc(Cc2cnc(NCCN(C)C)nc2)cc1-c1cccc(Cl)c1` [Example 3, {2-[(5-{[5-(3-Chlorophenyl)-6-methoxypyridin-3-yl]methyl}pyrimidin-2-yl)amino]ethyl}dimethylamine] registered an EC50 of 1000 to 10000 nM.

With `COc1cccc(-c2cc(Cn3cncn3)cnc2OC)n1` [Example 4, 2-Methoxy-3-(6-methoxypyridin-2-yl)-5-(1H-1,2,4-triazol-1-ylmethyl)pyridine], the concentration for a half-maximal effect (EC50) is above 10000 nM. For `COc1ncc(Cn2cncn2)cc1-c1cccc(C)c1` [Example 5, 2-Methoxy-3-(3-methylphenyl)-5-(1H-1,2,4-triazol-1-ylmethyl)pyridine] the value was 100 to 1000 nM; for `COc1ncc(Cn2cncn2)cc1-c1cncc(C)c1` [Example 6, 2-Methoxy-3-(5-methylpyridin-3-yl)-5-(1H-1,2,4-triazol-1-ylmethyl)pyridine], above 10000 nM. For the compound `COc1ncc(Cn2cncn2)cc1-c1ccnc(C)c1` [Example 7, 2-Methoxy-3-(2-methylpyridin-4-yl)-5-(1H-1,2,4-triazol-1-ylmethyl)pyridine], the concentration giving a half-maximal response (EC50) was 100 to 1000 nM.

`COc1ncc(Cn2cncn2)cc1-c1cccc(CO)c1` [Example 8, {3-[2-Methoxy-5-(1H-1,2,4-triazol-1-ylmethyl)pyridin-3-yl]phenyl}methanol] displayed an EC50 of 1000 to 10000 nM. For `COc1ncc(Cn2cncn2)cc1-c1cccc(S(C)(=O)=O)c1` [Example 9, 3-(3-Methanesulfonylphenyl)-2-methoxy-5-(1H-1,2,4-triazol-1-ylmethyl)pyridine] the value was above 10000 nM; for `COc1ncc(Cn2cncn2)cc1-c1cc(C)ccn1` [Example 10, 2-Methoxy-3-(4-methylpyridin-2-yl)-5-(1H-1,2,4-triazol-1-ylmethyl)pyridine], above 10000 nM; for `COc1ncc(Cn2cncn2)cc1-c1cccc(C)n1` [Example 11, 2-Methoxy-3-(6-methylpyridin-2-yl)-5-(1H-1,2,4-triazol-1-ylmethyl)pyridine], above 10000 nM. With `Cc1cccc(-c2cc(Cn3cncn3)cnc2OC(F)F)c1` [Example 12, 2-(Difluoromethoxy)-3-(3-methylphenyl)-5-(1H-1,2,4-triazol-1-ylmethyl)pyridine], the concentration for a half-maximal effect (EC50) lay in the range of 100 to 1000 nM. On to `CCOc1ncc(Cc2cnc(C(N)=O)nc2)nc1-c1cccc(OC(F)F)c1` [Example 13, 5-({6-[3-(Difluoromethoxy)phenyl]-5-ethoxypyrazin-2-yl}methyl)pyrimidine-2-carboxamide], for which the EC50 is below 100 nM. Then `COc1ncc(C(O)c2ccc(F)cc2)cc1-c1cccc(Cl)c1` (centres unmarked) [Example 14, [5-(3-Chlorophenyl)-6-methoxypyridin-3-yl](4-fluorophenyl)methanol], with 100 to 1000 nM; and `COc1ncc(C(C)(O)c2ccc(F)cc2)cc1-c1cccc(Cl)c1` (centres unmarked) [Example 15, 1-[5-(3-Chlorophenyl)-6-methoxypyridin-3-yl]-1-(4-fluorophenyl)ethan-1-ol], with 1000 to 10000 nM; and `COc1ncc(C(O)c2ccc(F)cn2)cc1-c1cccc(Cl)c1` (centres unmarked) [Example 16, [5-(3-Chlorophenyl)-6-methoxypyridin-3-yl](5-fluoropyridin-2-yl)methanol], with 1000 to 10000 nM. The compound `CNC(c1ccc(F)cc1)c1cnc(OC)c(-c2cccc(Cl)c2)c1` (centres unmarked) [Example 17, {[5-(3-Chlorophenyl)-6-methoxypyridin-3-yl](4-fluorophenyl)methyl}(methyl)amine] registered a concentration for a half-maximal effect (EC50) of 1000 to 10000 nM. For `COc1ncc(C(N)c2ccc(F)cc2)cc1-c1cccc(Cl)c1` (centres unmarked) [Example 18, [5-(3-Chlorophenyl)-6-methoxypyridin-3-yl](4-fluorophenyl)methanamine] the value was 1000 to 10000 nM.

Compound `COc1ncc(C(c2ccc(F)cc2)N(C)C)cc1-c1cccc(Cl)c1` (centres unmarked) [Example 19, {[5-(3-Chlorophenyl)-6-methoxypyridin-3-yl](4-fluorophenyl)methyl}dimethylamine] returned a concentration giving a half-maximal response (EC50) of 1000 to 10000 nM. With `COc1ncc(C(F)c2ccc(F)cc2)cc1-c1cccc(Cl)c1` (centres unmarked) [Example 20, 3-(3-Chlorophenyl)-5-[fluoro(4-fluorophenyl)methyl]-2-methoxypyridine], the EC50 was in the range of 100 to 1000 nM.

Consider `COc1ncc(Cc2ccc(C(=O)O)cc2)cc1-c1cccc(Cl)c1` [Example 21, 4-{[5-(3-Chlorophenyl)-6-methoxypyridin-3-yl]methyl}benzoic acid], for which the EC50 fell in the range of 100 to 1000 nM. For `COc1ncc(Cc2cnc(C#N)nc2)nc1-c1cccc(Cl)c1` [Example 22, 5-{[6-(3-Chlorophenyl)-5-methoxypyrazin-2-yl]methyl}pyrimidine-2-carbonitrile] the value was above 10000 nM; for `COc1ncc(Cc2cnc(C(=O)O)nc2)cc1-c1cccc(Cl)c1` [Example 23, 5-{[5-(3-Chlorophenyl)-6-methoxypyridin-3-yl]methyl}pyrimidine-2-carboxylic acid], 1000 to 10000 nM; for `COc1ncc(Cc2cnc(C(N)=O)nc2)cc1-c1cccc(Cl)c1` [Example 24, 5-{[5-(3-Chlorophenyl)-6-methoxypyridin-3-yl]methyl}pyrimidine-2-carboxamide], 100 to 1000 nM. With `COc1ncc(Cc2cnc(N)nc2)cc1-c1cccc(Cl)c1` [Example 25, 5-{[5-(3-Chlorophenyl)-6-methoxypyridin-3-yl]methyl}pyrimidin-2-amine], the EC50 is below 100 nM.

For the compound `COc1ncc(Cc2ccc(NC(N)=O)cc2)cc1-c1cccc(Cl)c1` [Example 26, (4-{[5-(3-Chlorophenyl)-6-methoxypyridin-3-yl]methyl}phenyl)urea], the concentration for a half-maximal effect (EC50) fell in the range of 100 to 1000 nM. Turning to `COc1ncc(Cc2ccc(C(N)=O)cc2)cc1-c1cccc(Cl)c1` [Example 27, 4-{[5-(3-Chlorophenyl)-6-methoxypyridin-3-yl]methyl}benzamide], the concentration giving a half-maximal response (EC50) was below 100 nM. The compound `FC(F)Oc1ncc(Cc2cn[nH]c2)cc1-c1cccc(Cl)c1` [Example 28, 5-((1H-Pyrazol-4-yl)methyl)-3-(3-chlorophenyl)-2-(difluoromethoxy)pyridine] displayed an EC50 below 100 nM. In turn, `COc1cccc(-c2cc(Cc3cnc(N)nc3)cnc2OC(F)F)c1` [Example 29, 5-{[6-(Difluoromethoxy)-5-(3-methoxyphenyl)pyridin-3-yl]methyl}pyrimidin-2-amine] yielded a concentration giving a half-maximal response (EC50) below 100 nM.

With `COc1ncc(Cc2ccc(N)nc2)cc1-c1cccc(Cl)c1` [Example 30, 5-{[5-(3-Chlorophenyl)-6-methoxypyridin-3-yl]methyl}pyridin-2-amine], the EC50 is below 100 nM.

`COc1ncc(Cc2ccc(NC(=O)NC3COC3)cc2)cc1-c1cccc(Cl)c1` [Example 31, 1-(4-{[5-(3-Chlorophenyl)-6-methoxypyridin-3-yl]methyl}phenyl)-3-(oxetan-3-yl)urea]: the concentration giving a half-maximal response (EC50) fell in the range of 1000 to 10000 nM. As for `COc1ccc(Cc2cnc(OC)c(-c3cccc(Cl)c3)c2)cn1` [Example 32, 3-(3-Chlorophenyl)-2-methoxy-5-[(6-methoxypyridin-3-yl)methyl]pyridine], the EC50 is below 100 nM.
